Test results from paper PMC3871636 (PLoS ONE, 2013).
Where a name gives a salt, the structure may show the parent alone.

Assays:
[1] = molecular target: CYP3A4 (double-labeled (C64/C468)-DY/ER) (Homo sapiens, UniProt P08684, form not given/S18F); assay: Steady-state LRET titration (delayed emission); assay type: binding; settings: human, purified double-labeled CYP3A4 (C64/C468)-DY/ER protein, pH 7.4; (C64/C468)-DY/ER; LRET titration; read-out: K d, steady-state fluorescence
Experimental: (§1) All absorbance and fluorescence assays (including the time-resolved fluorescence measurements) were performed at a protein concentration ≤1 µM at 25°C with continuous stirring. Absorbance spectra were recorded with an S2000 rapid scanning CCD spectrometer (Ocean Optics). Ligand binding assays were done in 100 mM Na-Hepes buffer, pH 7.4, containing 0.5 mM EDTA.
(§2) Fluorescence-based ligand binding assays were done under anaerobic conditions. Anaerobiosis was achieved using an oxygen-scavenging system consisting of protecatechuate-3,4-dioxygenase (0.5 units/ml) and 5 mM protocatechuic acid. The steady state and time-resolved phosphorescence measurements were performed with the use of a Cary Eclipse fluorescence spectrophotometer (Varian/Agilent Technologies). The excitation wavelength was set to 540 nm. Spectra were taken from 650 to 860 nm with 100 µs delay.
(§3) Quantitative interpretation of LRET results was also based on the use of PCA applied to a series of emission spectra normalized on integral intensity. […] Intensity of the donor and acceptor fluorescence obtained in this way were used in determination of the efficiency of steady-state LRET using the equation [drawing 1] (Eq.1) where I ad is emission intensity of the acceptor, I da is the residual donor emission in the presence of acceptor (I da), Φ a and Φ d are the quantum yield of the fluorescence of acceptor and the quantum yield of the phosphorescence of donor, respectively.
(§4) Distances were calculated using the equation: [drawing 3] (Eq.3) where R 0 is the Förster distance, and R is the distance between the donor and acceptor. R 0 was calculated with the use of PhotoChemCad software. In these calculations, we used the values of the orientation factor (κ^2) and the refractive index (n) of 0.667 and 1.4, respectively.
(§5) When fitting the results of titration experiments, where the changes in the monitored signal A S (fraction of the enzyme in the high-spin state, intensity or the lifetime of the donor phosphorescence at a given substrate concentration) were assumed to be proportional to [ES], this equation was complemented with the offset A 0 and the scaling factor A max to yield the following relationship: [drawing 5] (Eq.5)

[2] = molecular target: T1, double-labeled CYP3A4 (C64/C468)-DY/ER (Homo sapiens, UniProt P08684, S18F, form not given); assay: Steady-state LRET titration (delayed emission); assay type: binding; settings: for R (interprobe distance with ligand), steady-state measurements / ΔR, steady-state measurements: same ligand concentrations
Experimental: as §1, §2, §3, §4, §5

[3] = molecular target: T2, double-labeled CYP3A4 (C64/C468)-ER/DY (Homo sapiens, UniProt P08684, S18F, form not given); assay: Steady-state LRET titration (delayed emission); assay type: binding; settings: for R (interprobe distance with ligand), steady-state measurements / ΔR, steady-state measurements: same ligand concentrations
Experimental: as §1, §2, §3, §4, §5

[4] = molecular target: T3, double-labeled CYP3A4 C377/C468-DY/ER (Homo sapiens, UniProt P08684, S18F, form not given); assay: Steady-state LRET titration (delayed emission); assay type: binding; settings: Table S2, protein C377/C468-ER/DY; for R (interprobe distance with ligand), steady-state measurements / ΔR, steady-state measurements: same ligand concentrations
Experimental: as §1, §2, §3, §4, §5

[5] = molecular target: T1, double-labeled CYP3A4 (C64/C468)-DY/ER; assay: Time-resolved LRET (phosphorescence lifetime measurements); settings: for τ1 (phosphorescence decay time with ligand) / F1 (fraction of first exponential) / τ2 (phosphorescence decay time with ligand) / τav (average phosphorescence lifetime with ligand): Table S1; for τ1 (phosphorescence decay time with ligand): bi-exponential fit; for F1 (fraction of first exponential) / τ2 (phosphorescence decay time with ligand) / τav (average phosphorescence lifetime with ligand) / R (interprobe distance with ligand), lifetime measurements / ΔR, lifetime measurements: same ligand concentrations
From the text: (§6) The excitation wavelength was set to 540 nm.

[6] = molecular target: T2, double-labeled CYP3A4 (C64/C468)-ER/DY; assay: as above; settings: for τ1 (phosphorescence decay time with ligand) / F1 (fraction of first exponential) / τ2 (phosphorescence decay time with ligand) / τav (average phosphorescence lifetime with ligand): Table S1; for τ1 (phosphorescence decay time with ligand): bi-exponential fit; for F1 (fraction of first exponential) / τ2 (phosphorescence decay time with ligand) / τav (average phosphorescence lifetime with ligand) / R (interprobe distance with ligand), lifetime measurements / ΔR, lifetime measurements: same ligand concentrations
From the text: as §6

[7] = molecular target: T3, double-labeled CYP3A4 C377/C468-DY/ER; assay: as above; settings: for τ1 (phosphorescence decay time with ligand) / F1 (fraction of first exponential) / τ2 (phosphorescence decay time with ligand) / τav (average phosphorescence lifetime with ligand): Table S1, protein (C377/C468)-ER/DY; for τ1 (phosphorescence decay time with ligand): bi-exponential fit; for F1 (fraction of first exponential) / τ2 (phosphorescence decay time with ligand) / τav (average phosphorescence lifetime with ligand) / R (interprobe distance with ligand), lifetime measurements / ΔR, lifetime measurements: same ligand concentrations
From the text: as §6

[8] = molecular target: double-labeled CYP3A4 C64/C121-DY/ER (Homo sapiens, UniProt P08684, A121C/C239S/C377S/C468A/C98S/S18F); assay: as above; settings: for F1 (fraction of first exponential) / τ2 (phosphorescence decay time with ligand) / τav (average phosphorescence lifetime with ligand) / R (interprobe distance with ligand), lifetime measurements / ΔR, lifetime measurements: same ligand concentrations; for R (interprobe distance with ligand), lifetime measurements / ΔR, lifetime measurements: Table S2, protein C64/C121-ER/DY
Experimental: as §1, §2
The treatment of the time-resolved decay traces was performed using a bi-exponential approximation. The efficiency of time-resolved LRET was calculated using the equation [drawing 2] (Eq.2)
In this equation τda and τd designate the average lifetime of the excited state of the donor in the presence and absence of the acceptor, respectively. These average lifetimes are determined as τ = α1τ1+α2τ2, where τ1,2 and α1,2 stay for the lifetime and the relative amplitude of each of the two exponential terms. In our calculations of the lifetime in double-labeled C64/C468, C377/C468 and C64/C121 proteins we used the lifetimes of phosphorescence measured with the respective proteins labeled with ERIA at a label:protein ratio 2∶1 as the estimates of τd.
as §4

[9] = Table S2, C64/C468-DY/ER, 1-PB 40 µM, ANF 100 µM, BCT 2.5 µM, cholesterol 100 µM, testosterone 100 µM
[10] = Table S2, C64/C468-ER/DY, 1-PB 40 µM, ANF 100 µM, BCT 2.5 µM, cholesterol 100 µM, testosterone 100 µM
[11] = 1-PB 40 µM, ANF 100 µM, BCT 2.5 µM, cholesterol 100 µM, testosterone 100 µM
[12] = (C64/C468)-DY/ER, nearly-saturating ligand: ANF 100 µM, bromocriptine 2.5 µM, cholesterol 50 µM, testosterone 100 µM
[13] = (C64/C468)-DY/ER, 1-PB 40 µM, ANF 100 µM, BCT 2.5 µM, cholesterol 100 µM, testosterone 100 µM
[14] = (C64/C468)-ER/DY, nearly-saturating ligand: ANF 100 µM, bromocriptine 2.5 µM, cholesterol 50 µM, testosterone 100 µM
[15] = (C64/C468)-ER/DY, 1-PB 40 µM, ANF 100 µM, BCT 2.5 µM, cholesterol 100 µM, testosterone 100 µM
[16] = Table S2, protein C377/C468-ER/DY
[17] = Table S1, protein (C64/C121)-ER/DY

double-labeled CYP3A4 C64/C121-DY/ER, sequence (P08684 with tags, fused parts or gaps S18F/C98S/A121C/C239S/C377S/C468A limits assumed): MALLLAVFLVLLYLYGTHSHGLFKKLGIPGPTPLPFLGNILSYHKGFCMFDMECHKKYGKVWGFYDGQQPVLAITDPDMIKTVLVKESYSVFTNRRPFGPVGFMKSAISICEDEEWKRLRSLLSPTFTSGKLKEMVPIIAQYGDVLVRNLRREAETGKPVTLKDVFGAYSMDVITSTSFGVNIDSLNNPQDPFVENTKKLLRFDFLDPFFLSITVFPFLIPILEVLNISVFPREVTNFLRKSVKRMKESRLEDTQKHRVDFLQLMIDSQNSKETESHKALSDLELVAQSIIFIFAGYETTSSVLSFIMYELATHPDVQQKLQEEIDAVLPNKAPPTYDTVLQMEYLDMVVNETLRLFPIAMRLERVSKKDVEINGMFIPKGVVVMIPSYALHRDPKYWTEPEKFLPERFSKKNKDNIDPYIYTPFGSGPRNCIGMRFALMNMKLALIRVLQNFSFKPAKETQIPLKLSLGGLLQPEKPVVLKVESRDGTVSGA
T3 sequence (P08684 13-503 S18F, form open): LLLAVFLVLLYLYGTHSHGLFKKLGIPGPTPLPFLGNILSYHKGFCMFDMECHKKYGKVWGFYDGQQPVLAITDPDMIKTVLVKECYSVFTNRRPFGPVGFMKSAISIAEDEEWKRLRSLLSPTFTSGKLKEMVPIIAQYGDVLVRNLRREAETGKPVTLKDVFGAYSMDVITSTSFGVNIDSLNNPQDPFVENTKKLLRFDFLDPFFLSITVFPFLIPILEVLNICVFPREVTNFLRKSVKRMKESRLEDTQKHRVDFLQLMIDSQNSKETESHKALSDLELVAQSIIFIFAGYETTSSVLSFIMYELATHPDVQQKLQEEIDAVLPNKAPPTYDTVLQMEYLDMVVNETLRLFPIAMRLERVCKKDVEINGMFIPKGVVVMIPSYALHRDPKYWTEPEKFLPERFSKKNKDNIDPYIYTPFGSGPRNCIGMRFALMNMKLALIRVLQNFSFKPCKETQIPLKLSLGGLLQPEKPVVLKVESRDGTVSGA
T2 sequence (P08684 13-503 S18F, form open): as above
T1 sequence (P08684 13-503 S18F, form open): as above
CYP3A4 (double-labeled (C64/C468)-DY/ER), sequence (P08684 13-503 S18F, form open): as above

## O=c1cc(-c2ccccc2)oc2c1ccc1ccccc12 [ANF, α-naphthoflavone]
[1]
  Kd: 9.1 ± 2.9 µM
[2]; (C64/C468)-DY/ER
  ΔR (change in interprobe distance), steady-state fluorescence: 3.9±1.7 Å
[2]; (C64/C468)-DY/ER, from maximal relative change in donor intensity
  ΔE (change in LRET efficiency), steady-state fluorescence: −18±1%
[2]; [9]
  E (LRET efficiency with ligand), steady-state measurements: 29 ± 1%
[2]; Table S2, C64/C468-DY/ER
  R (interprobe distance with ligand), steady-state measurements: 38.8 ± 1 Å
  ΔR, steady-state measurements: 3.9 ± 1.7 Å
[3]; (C64/C468)-ER/DY
  ΔR (change in interprobe distance), steady-state fluorescence: 2.1±0.9 Å
[3]; (C64/C468)-ER/DY, from maximal relative change in donor intensity
  ΔE (change in LRET efficiency), steady-state fluorescence: −8±4%
[3]; [10]
  E (LRET efficiency with ligand), steady-state measurements: 23 ± 2%
[3]; Table S2, C64/C468-ER/DY
  R (interprobe distance with ligand), steady-state measurements: 41.2 ± 0.9 Å
  ΔR, steady-state measurements: 2.1 ± 0.9 Å
[4]; [11]
  E (LRET efficiency with ligand), steady-state measurements: 14 ± 0%
[4]
  R (interprobe distance with ligand), steady-state measurements: 45.2 ± 0.1 Å
  ΔR, steady-state measurements: 0.5 ± 0.1 Å
[5]; [12]
  ΔELT (change in LRET efficiency), lifetime measurements: −6.8±3%
  ΔR (change in interprobe distance), lifetime measurements: 1.8±0.7 Å
[5]; [13]
  τ1 (phosphorescence decay time with ligand): 54 ± 1 µs
[5]; (C64/C468)-DY/ER
  F1 (fraction of first exponential): 45 ± 5%
  τ2 (phosphorescence decay time with ligand): 231 ± 15 µs
  τav (average phosphorescence lifetime with ligand): 154 ± 4 µs
[5]; [9]
  E (LRET efficiency with ligand), lifetime measurements: 34 ± 2%
[5]; Table S2, C64/C468-DY/ER
  R (interprobe distance with ligand), lifetime measurements: 38.6 ± 0.5 Å
  ΔR, lifetime measurements: 1.8 ± 0.5 Å
[6]; [14]
  ΔELT (change in LRET efficiency), lifetime measurements: −14.5±1%
  ΔR (change in interprobe distance), lifetime measurements: 4.1±0.2 Å
[6]; [15]
  τ1 (phosphorescence decay time with ligand): 53 ± 2 µs
[6]; (C64/C468)-ER/DY
  F1 (fraction of first exponential): 34 ± 1%
  τ2 (phosphorescence decay time with ligand): 216 ± 3 µs
  τav (average phosphorescence lifetime with ligand): 168 ± 1 µs
[6]; [10]
  E (LRET efficiency with ligand), lifetime measurements: 28 ± 1%
[6]; Table S2, C64/C468-ER/DY
  R (interprobe distance with ligand), lifetime measurements: 40.4 ± 0.1 Å
  ΔR, lifetime measurements: 4.1 ± 0.1 Å
[7]; [11]
  τ1 (phosphorescence decay time with ligand): 42 ± 10 µs
[7]
  F1 (fraction of first exponential): 28 ± 5%
  τ2 (phosphorescence decay time with ligand): 188 ± 18 µs
  τav (average phosphorescence lifetime with ligand): 147 ± 8 µs
[7]; Table S2, protein C377/C468-ER/DY, 1-PB 40 µM, ANF 100 µM, BCT 2.5 µM, cholesterol 100 µM, testosterone 100 µM
  E (LRET efficiency with ligand), lifetime measurements: 19 ± 4%
[7]; [16]
  R (interprobe distance with ligand), lifetime measurements: 43.9 ± 2.3 Å
  ΔR, lifetime measurements: 7.1 ± 2.3 Å
[8]; [17]
  F1 (fraction of first exponential): 43 ± 7%
  τ2 (phosphorescence decay time with ligand): 232 ± 22 µs
  τav (average phosphorescence lifetime with ligand): 159 ± 7 µs
[8]
  R (interprobe distance with ligand), lifetime measurements: 36.4 ± 0.5 Å
  ΔR, lifetime measurements: 1.3 ± 0.5 Å

## CC(C)C[C@H]1C(=O)N2CCC[C@H]2[C@]2(O)O[C@](NC(=O)[C@@H]3C=C4c5cccc6[nH]c(Br)c(c56)C[C@H]4N(C)C3)(C(C)C)C(=O)N12 [Bromocriptine, Bromocriptine mesylate]
[1]
  Kd: 0.7 ± 0.1 µM
[2]; (C64/C468)-DY/ER
  ΔR (change in interprobe distance), steady-state fluorescence: 0.2±0.2 Å
[2]; Table S2, C64/C468-DY/ER
  R (interprobe distance with ligand), steady-state measurements: 35.1 ± 0 Å
  ΔR, steady-state measurements: 0.2 ± 0.2 Å
[3]; (C64/C468)-ER/DY
  ΔR (change in interprobe distance), steady-state fluorescence: 0.5±1.6 Å
[3]; Table S2, C64/C468-ER/DY
  R (interprobe distance with ligand), steady-state measurements: 39.6 ± 1.6 Å
  ΔR, steady-state measurements: 0.5 ± 1.6 Å
[4]
  R (interprobe distance with ligand), steady-state measurements: 44.7 ± 0.1 Å
  ΔR, steady-state measurements: 0.0 ± 0.1 Å
[5]; [12]
  ΔR (change in interprobe distance), lifetime measurements: 0.3±1.0 Å
[5]; [13]
  τ1 (phosphorescence decay time with ligand): 55 ± 9 µs
[5]; (C64/C468)-DY/ER
  F1 (fraction of first exponential): 44 ± 5%
  τ2 (phosphorescence decay time with ligand): 209 ± 20 µs
  τav (average phosphorescence lifetime with ligand): 141 ± 7 µs
[5]; Table S2, C64/C468-DY/ER
  R (interprobe distance with ligand), lifetime measurements: 37.1 ± 0.8 Å
  ΔR, lifetime measurements: 0.3 ± 0.8 Å
[6]; [14]
  ΔR (change in interprobe distance), lifetime measurements: −0.3±0.6 Å
[6]; [15]
  τ1 (phosphorescence decay time with ligand): 39 ± 12 µs
[6]; (C64/C468)-ER/DY
  F1 (fraction of first exponential): 28 ± 5%
  τ2 (phosphorescence decay time with ligand): 168 ± 2 µs
  τav (average phosphorescence lifetime with ligand): 131 ± 5 µs
[6]; Table S2, C64/C468-ER/DY
  R (interprobe distance with ligand), lifetime measurements: 36.0 ± 0.5 Å
  ΔR, lifetime measurements: -0.3 ± 0.5 Å
[7]; [11]
  τ1 (phosphorescence decay time with ligand): 25 ± 9 µs
[7]
  F1 (fraction of first exponential): 20 ± 4%
  τ2 (phosphorescence decay time with ligand): 129 ± 6 µs
  τav (average phosphorescence lifetime with ligand): 108 ± 3 µs
[7]; [16]
  R (interprobe distance with ligand), lifetime measurements: 36.8± 0.4 Å
  ΔR, lifetime measurements: 0.0 ± 0.4 Å
[8]; C64/C121-DY/ER, stated for both steady-state and lifetime experiments
  increase in the interprobe distance: 1.3 Å
[8]; Table S1, protein (C64/C121)-ER/DY, 1-PB 40 µM, ANF 100 µM, BCT 2.5 µM, cholesterol 100 µM, testosterone 100 µM, bi-exponential fit
  τ1 (phosphorescence decay time with ligand): 75 ± 13 µs
[8]; [17]
  F1 (fraction of first exponential): 49 ± 5%
  τ2 (phosphorescence decay time with ligand): 242 ± 15 µs
  τav (average phosphorescence lifetime with ligand): 159 ± 2 µs
[8]
  R (interprobe distance with ligand), lifetime measurements: 36.4 ± 0.1 Å
  ΔR, lifetime measurements: 1.3 ± 0.1 Å
